How the values were obtained:
Assay in all cases: KINOMEscan competition binding
Conditions in all cases: compound 10.0 µM; call rule not given here
ACVR2B (human) = ACVR2B (human) (UniProt Q13705)
AURKA (human) = AURKA (human) (UniProt O14965)
CSNK2A2 (human) = CSNK2A2 (human) (UniProt P19784)
EPHA1 (human) = EPHA1 (human) (UniProt P21709)
EPHA5 (human) = EPHA5 (human) (UniProt P54756)
FGR (human) = FGR (human) (UniProt P09769)
HCK (human) = HCK (human) (UniProt P08631)
ITK (human) = ITK (human) (UniProt Q08881)
[1] = molecular target: JAK2 JH1 catalytic (human) (UniProt O60674)
KIT (human) = KIT (human) (UniProt P10721)
MAP4K5 (human) = MAP4K5 (human) (UniProt Q9Y4K4)
MST4 (human) = MST4 (human) (UniProt Q9P289)
Chain of MST4 (human) (Q9P289 whole entry, looked up): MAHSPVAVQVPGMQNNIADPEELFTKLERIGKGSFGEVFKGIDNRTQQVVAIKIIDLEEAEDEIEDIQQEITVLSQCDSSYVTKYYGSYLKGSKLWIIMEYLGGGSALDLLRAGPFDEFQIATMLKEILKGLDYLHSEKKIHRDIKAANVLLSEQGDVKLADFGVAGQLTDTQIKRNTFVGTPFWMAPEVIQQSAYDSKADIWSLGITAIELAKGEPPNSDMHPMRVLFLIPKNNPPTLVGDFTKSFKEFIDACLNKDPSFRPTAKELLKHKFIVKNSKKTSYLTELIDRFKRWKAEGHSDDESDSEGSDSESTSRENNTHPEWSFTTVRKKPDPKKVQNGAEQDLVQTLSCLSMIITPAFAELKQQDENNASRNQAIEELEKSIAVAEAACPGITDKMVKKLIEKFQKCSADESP

NTRK2 (human) = NTRK2 (human) (UniProt Q16620)
PKN2 (human) = PKN2 (human) (UniProt Q16513)
Chain of PKN2 (human) (Q16513 whole entry, looked up): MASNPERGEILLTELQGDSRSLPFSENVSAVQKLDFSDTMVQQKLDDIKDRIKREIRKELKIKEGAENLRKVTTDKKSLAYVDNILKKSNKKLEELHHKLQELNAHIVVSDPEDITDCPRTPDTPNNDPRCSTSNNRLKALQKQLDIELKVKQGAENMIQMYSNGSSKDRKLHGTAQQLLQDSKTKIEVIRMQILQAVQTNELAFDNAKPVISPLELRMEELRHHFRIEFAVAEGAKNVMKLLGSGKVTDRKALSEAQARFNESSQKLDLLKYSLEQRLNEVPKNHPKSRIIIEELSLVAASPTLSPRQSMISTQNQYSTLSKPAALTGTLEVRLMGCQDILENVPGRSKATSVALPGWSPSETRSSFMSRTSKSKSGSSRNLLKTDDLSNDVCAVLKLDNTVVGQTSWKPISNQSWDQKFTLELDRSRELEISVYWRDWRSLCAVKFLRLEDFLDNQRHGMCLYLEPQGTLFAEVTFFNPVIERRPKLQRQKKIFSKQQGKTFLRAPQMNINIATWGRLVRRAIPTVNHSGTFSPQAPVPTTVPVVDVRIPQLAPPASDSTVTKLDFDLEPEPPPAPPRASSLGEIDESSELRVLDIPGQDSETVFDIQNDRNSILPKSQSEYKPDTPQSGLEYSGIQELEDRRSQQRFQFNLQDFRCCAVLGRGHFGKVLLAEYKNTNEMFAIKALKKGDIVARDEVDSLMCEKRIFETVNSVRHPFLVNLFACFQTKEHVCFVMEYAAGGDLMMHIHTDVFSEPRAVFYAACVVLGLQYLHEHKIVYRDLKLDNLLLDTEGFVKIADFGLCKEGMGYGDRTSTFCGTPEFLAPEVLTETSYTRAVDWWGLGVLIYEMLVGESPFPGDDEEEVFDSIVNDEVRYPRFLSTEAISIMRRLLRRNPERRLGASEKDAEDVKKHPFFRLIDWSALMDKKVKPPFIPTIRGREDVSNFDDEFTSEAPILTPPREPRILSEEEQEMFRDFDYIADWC

STK16 (human) = STK16 (human) (UniProt O75716)
TLK1 (human) = TLK1 (human) (UniProt Q9UKI8)
TNK1 (human) = TNK1 (human) (UniProt Q13470)
TNK2 (human) = TNK2 (human) (UniProt Q07912)
TNNI3K (human) = TNNI3K (human) (UniProt Q59H18)
Chain of TNNI3K (human) (Q59H18 whole entry, looked up): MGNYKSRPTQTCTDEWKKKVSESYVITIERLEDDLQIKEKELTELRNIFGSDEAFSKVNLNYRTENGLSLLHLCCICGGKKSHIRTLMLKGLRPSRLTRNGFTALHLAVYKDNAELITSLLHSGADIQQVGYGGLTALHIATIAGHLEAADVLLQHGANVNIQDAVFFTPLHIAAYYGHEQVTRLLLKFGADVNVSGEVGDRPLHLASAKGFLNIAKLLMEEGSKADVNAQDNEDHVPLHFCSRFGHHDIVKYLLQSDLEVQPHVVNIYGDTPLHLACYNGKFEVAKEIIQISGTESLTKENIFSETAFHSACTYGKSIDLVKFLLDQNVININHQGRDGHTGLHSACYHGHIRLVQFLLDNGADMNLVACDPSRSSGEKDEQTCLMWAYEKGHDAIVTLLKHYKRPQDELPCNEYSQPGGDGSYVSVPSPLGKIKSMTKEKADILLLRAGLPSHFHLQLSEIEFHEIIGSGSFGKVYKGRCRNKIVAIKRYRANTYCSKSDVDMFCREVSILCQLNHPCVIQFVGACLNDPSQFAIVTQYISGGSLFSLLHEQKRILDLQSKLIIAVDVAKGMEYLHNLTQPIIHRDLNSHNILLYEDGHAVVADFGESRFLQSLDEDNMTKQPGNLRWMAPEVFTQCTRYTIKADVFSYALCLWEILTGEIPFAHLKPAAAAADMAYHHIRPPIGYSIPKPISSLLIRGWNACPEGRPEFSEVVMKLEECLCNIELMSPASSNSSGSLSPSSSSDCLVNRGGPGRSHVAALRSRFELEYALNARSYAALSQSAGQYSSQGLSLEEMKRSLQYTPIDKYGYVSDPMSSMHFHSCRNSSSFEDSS

[2] = molecular target: TYK2 JH1 catalytic (human) (UniProt P29597)
Chain of TYK2 JH1 catalytic (human) (P29597 whole entry, looked up): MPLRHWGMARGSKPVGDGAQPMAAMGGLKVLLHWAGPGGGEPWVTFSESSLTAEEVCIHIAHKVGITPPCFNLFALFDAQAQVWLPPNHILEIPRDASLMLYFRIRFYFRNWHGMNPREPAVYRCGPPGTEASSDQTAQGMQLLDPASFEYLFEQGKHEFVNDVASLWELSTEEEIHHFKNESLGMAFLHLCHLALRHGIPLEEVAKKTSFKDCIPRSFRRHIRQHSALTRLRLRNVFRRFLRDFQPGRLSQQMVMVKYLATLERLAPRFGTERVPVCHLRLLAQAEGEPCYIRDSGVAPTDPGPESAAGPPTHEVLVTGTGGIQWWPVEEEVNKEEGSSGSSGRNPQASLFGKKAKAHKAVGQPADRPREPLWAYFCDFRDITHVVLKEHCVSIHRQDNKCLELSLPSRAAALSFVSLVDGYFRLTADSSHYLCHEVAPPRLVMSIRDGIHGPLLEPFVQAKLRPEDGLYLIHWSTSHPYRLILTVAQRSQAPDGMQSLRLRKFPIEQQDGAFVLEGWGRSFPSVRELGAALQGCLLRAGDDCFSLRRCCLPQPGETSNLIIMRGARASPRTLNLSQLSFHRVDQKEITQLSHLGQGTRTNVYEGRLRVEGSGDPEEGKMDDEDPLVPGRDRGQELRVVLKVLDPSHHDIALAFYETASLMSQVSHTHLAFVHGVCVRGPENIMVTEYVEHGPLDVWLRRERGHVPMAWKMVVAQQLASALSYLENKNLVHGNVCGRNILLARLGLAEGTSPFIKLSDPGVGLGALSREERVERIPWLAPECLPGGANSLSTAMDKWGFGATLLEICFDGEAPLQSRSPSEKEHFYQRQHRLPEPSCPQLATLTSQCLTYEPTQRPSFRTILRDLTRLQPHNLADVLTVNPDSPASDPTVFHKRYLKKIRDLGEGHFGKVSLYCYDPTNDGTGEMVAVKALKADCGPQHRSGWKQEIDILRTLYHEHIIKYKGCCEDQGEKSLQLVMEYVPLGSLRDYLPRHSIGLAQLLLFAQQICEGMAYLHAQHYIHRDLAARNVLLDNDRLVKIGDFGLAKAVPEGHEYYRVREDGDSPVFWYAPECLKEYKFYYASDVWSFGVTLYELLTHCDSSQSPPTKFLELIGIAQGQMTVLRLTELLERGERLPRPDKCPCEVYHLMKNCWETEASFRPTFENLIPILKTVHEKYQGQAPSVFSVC

AAK1 (human) = AAK1 (human) (UniProt Q2M2I8)
CDK5 (human) = CDK5 (human) (UniProt Q00535)
CSNK2A1 (human) = CSNK2A1 (human) (UniProt P68400)
STK33 (human) = STK33 (human) (UniProt Q9BYT3)
BRAF (human) = BRAF (human) (UniProt P15056)
[3] = tested on: EIF2AK4 KD2 (human), Q9P2K8 [S808G]
PDPK1 (human) = PDPK1 (human) (UniProt O15530)
Chain of PDPK1 (human) (O15530 whole entry, looked up): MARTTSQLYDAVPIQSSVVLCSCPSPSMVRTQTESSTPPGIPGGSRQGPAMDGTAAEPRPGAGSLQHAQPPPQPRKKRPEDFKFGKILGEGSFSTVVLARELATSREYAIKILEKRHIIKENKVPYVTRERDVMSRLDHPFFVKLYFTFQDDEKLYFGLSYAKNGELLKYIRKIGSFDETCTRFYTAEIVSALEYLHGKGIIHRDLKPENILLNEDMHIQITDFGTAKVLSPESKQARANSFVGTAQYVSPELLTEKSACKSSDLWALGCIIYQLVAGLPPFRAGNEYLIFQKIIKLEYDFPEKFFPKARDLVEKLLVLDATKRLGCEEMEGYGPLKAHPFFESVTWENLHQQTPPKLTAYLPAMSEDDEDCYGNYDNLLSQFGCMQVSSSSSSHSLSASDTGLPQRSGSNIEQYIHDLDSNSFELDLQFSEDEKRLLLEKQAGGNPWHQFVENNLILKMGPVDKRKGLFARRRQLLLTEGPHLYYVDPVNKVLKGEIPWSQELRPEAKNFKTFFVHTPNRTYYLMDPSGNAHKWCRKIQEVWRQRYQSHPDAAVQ

STK17B (human) = STK17B (human) (UniProt O94768)
TESK1 (human) = TESK1 (human) (UniProt Q15569)
MKNK2 (human) = MKNK2 (human) (UniProt Q9HBH9)
MYLK2 (human) = MYLK2 (human) (UniProt Q9H1R3)
TTK (human) = TTK (human) (UniProt P33981)
MAP4K1 (human) = MAP4K1 (human) (UniProt Q92918)
MAP4K3 (human) = MAP4K3 (human) (UniProt Q8IVH8)
MAP4K4 (human) = MAP4K4 (human) (UniProt O95819)
PDGFRA (human) = PDGFRA (human) (UniProt P16234)
SLK (human) = SLK (human) (UniProt Q9H2G2)

Chain of CSNK2A2 (human) (P19784 whole entry, looked up): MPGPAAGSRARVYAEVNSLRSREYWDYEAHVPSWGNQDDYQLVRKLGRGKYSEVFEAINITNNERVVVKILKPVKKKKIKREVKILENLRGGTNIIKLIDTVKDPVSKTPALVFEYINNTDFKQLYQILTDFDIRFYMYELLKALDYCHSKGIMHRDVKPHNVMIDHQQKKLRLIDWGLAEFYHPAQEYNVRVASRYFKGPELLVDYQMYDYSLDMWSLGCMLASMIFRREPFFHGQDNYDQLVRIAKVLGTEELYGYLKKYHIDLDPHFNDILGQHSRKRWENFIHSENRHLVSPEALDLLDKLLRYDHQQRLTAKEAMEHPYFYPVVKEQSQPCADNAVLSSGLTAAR
Chain of HCK (human) (P08631 whole entry, looked up): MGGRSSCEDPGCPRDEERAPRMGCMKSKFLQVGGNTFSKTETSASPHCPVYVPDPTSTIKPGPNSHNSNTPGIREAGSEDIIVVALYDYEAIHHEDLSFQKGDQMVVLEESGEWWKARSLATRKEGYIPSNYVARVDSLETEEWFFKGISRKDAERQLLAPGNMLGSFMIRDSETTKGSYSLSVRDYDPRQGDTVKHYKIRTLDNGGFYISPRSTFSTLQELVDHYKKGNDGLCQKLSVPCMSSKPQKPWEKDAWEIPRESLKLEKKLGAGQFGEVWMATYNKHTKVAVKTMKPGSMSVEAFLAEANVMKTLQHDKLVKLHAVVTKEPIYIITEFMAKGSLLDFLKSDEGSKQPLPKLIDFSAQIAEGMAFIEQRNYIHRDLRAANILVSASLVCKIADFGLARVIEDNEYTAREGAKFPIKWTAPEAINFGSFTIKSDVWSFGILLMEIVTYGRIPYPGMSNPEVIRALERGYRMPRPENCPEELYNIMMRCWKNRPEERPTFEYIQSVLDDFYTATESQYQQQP

Row | SMILES | kinase still bound, per cent of control (ACVR2B (human)) | kinase still bound, per cent of control (AURKA (human)) | kinase still bound, per cent of control (CSNK2A2 (human)) | kinase still bound, per cent of control (EPHA1 (human)) | kinase still bound, per cent of control (EPHA5 (human)) | kinase still bound, per cent of control (FGR (human)) | kinase still bound, per cent of control (HCK (human)) | kinase still bound, per cent of control (ITK (human)) | kinase still bound, per cent of control [1] | kinase still bound, per cent of control (KIT (human)) | kinase still bound, per cent of control (MAP4K5 (human)) | kinase still bound, per cent of control (MST4 (human)) | kinase still bound, per cent of control (PKN2 (human)) | kinase still bound, per cent of control (TNK1 (human)) | kinase still bound, per cent of control (TNK2 (human)) | kinase still bound, per cent of control (TNNI3K (human)) | kinase still bound, per cent of control (CSNK2A1 (human)) | kinase still bound, per cent of control (STK33 (human)) | kinase still bound, per cent of control (BRAF (human)) | kinase still bound, per cent of control (TESK1 (human)) | other results
1 | NC(=O)Nc1sc(-c2ccc(F)cc2)cc1C(N)=O | – | – | – | – | – | – | – | – | – | – | no effect (inactive) | – | – | – | – | – | 0% | no effect (inactive) | – | – | kinase still bound, per cent of control (AAK1 (human)): 0%; kinase still bound, per cent of control (CDK5 (human)): no effect (inactive)
2 | Cc1cc(Nc2cc(N3CCN(C)CC3)nc(Sc3ccc(NC(=O)C4CC4)cc3)n2)[nH]n1 | no effect (inactive) | – | – | – | – | – | no effect (inactive) | – | – | – | – | no effect (inactive) | – | – | – | no effect (inactive) | 0% | no effect (inactive) | no effect (inactive) | – | kinase still bound, per cent of control (CDK5 (human)): no effect (inactive); kinase still bound, per cent of control (MKNK2 (human)): no effect (inactive); kinase still bound, per cent of control (MYLK2 (human)): 0%; kinase still bound, per cent of control (STK17B (human)): no effect (inactive); kinase still bound, per cent of control (TTK (human)): no effect (inactive)
3 | O=C(Nc1n[nH]c2nc(-c3cccc(O)c3)ccc12)C1CC1 | – | no effect (inactive) | no effect (inactive) | – | – | – | – | no effect (inactive) | no effect (inactive) | – | no effect (inactive) | no effect (inactive) | no effect (inactive) | no effect (inactive) | no effect (inactive) | no effect (inactive) | – | no effect (inactive) | – | no effect (inactive) | kinase still bound, per cent of control [3]: no effect (inactive); kinase still bound, per cent of control (MAP4K1 (human)): no effect (inactive); kinase still bound, per cent of control (MAP4K3 (human)): no effect (inactive); kinase still bound, per cent of control (MKNK2 (human)): no effect (inactive); kinase still bound, per cent of control (MYLK2 (human)): 0%; kinase still bound, per cent of control (NTRK2 (human)): no effect (inactive); kinase still bound, per cent of control (PDPK1 (human)): no effect (inactive); kinase still bound, per cent of control (STK16 (human)): 0%; kinase still bound, per cent of control [2]: no effect (inactive)
4 | O=C1Nc2ccccc2/C1=C/c1ccc[nH]1 | no effect (inactive) | – | – | no effect (inactive) | no effect (inactive) | no effect (inactive) | no effect (inactive) | – | – | 0% | – | – | no effect (inactive) | no effect (inactive) | no effect (inactive) | no effect (inactive) | – | – | no effect (inactive) | no effect (inactive) | kinase still bound, per cent of control (MKNK2 (human)): no effect (inactive); kinase still bound, per cent of control (SLK (human)): no effect (inactive)

Continued, in another order:

Row | kinase still bound, per cent of control (ACVR2B (human)) | kinase still bound, per cent of control (AURKA (human)) | kinase still bound, per cent of control (CSNK2A2 (human)) | kinase still bound, per cent of control (EPHA1 (human)) | kinase still bound, per cent of control (EPHA5 (human)) | kinase still bound, per cent of control (FGR (human)) | kinase still bound, per cent of control (HCK (human)) | kinase still bound, per cent of control (ITK (human)) | kinase still bound, per cent of control [1] | kinase still bound, per cent of control (KIT (human)) | kinase still bound, per cent of control (MAP4K5 (human)) | kinase still bound, per cent of control (MST4 (human)) | kinase still bound, per cent of control (PKN2 (human)) | kinase still bound, per cent of control (TNK1 (human)) | kinase still bound, per cent of control (TNK2 (human)) | kinase still bound, per cent of control (TNNI3K (human)) | kinase still bound, per cent of control (CSNK2A1 (human)) | kinase still bound, per cent of control (STK33 (human)) | kinase still bound, per cent of control (BRAF (human)) | kinase still bound, per cent of control (TESK1 (human)) | SMILES | other results
5 | no effect (inactive) | no effect (inactive) | no effect (inactive) | no effect (inactive) | no effect (inactive) | no effect (inactive) | no effect (inactive) | no effect (inactive) | no effect (inactive) | no effect (inactive) | no effect (inactive) | no effect (inactive) | no effect (inactive) | no effect (inactive) | no effect (inactive) | no effect (inactive) | – | – | – | – | N#Cc1ccc(-c2cnc3[nH]cc(NC(=O)c4cccnc4)c3c2)cc1 | kinase still bound, per cent of control (NTRK2 (human)): no effect (inactive); kinase still bound, per cent of control (STK16 (human)): 0%; kinase still bound, per cent of control (TLK1 (human)): no effect (inactive); kinase still bound, per cent of control [2]: no effect (inactive)
6 | 0% | – | no effect (inactive) | 0% | 0% | 0% | – | no effect (inactive) | – | 0% | – | no effect (inactive) | no effect (inactive) | – | – | – | no effect (inactive) | – | no effect (inactive) | no effect (inactive) | Cc1ccc(O)cc1Nc1ccnc(Nc2cccc(C(N)=O)c2)n1 | kinase still bound, per cent of control (AAK1 (human)): no effect (inactive); kinase still bound, per cent of control (CDK5 (human)): no effect (inactive); kinase still bound, per cent of control [3]: no effect (inactive); kinase still bound, per cent of control (NTRK2 (human)): no effect (inactive); kinase still bound, per cent of control (PDPK1 (human)): no effect (inactive); kinase still bound, per cent of control (STK17B (human)): no effect (inactive); kinase still bound, per cent of control (TLK1 (human)): no effect (inactive)
7 | – | no effect (inactive) | no effect (inactive) | no effect (inactive) | no effect (inactive) | no effect (inactive) | no effect (inactive) | no effect (inactive) | no effect (inactive) | 0% | no effect (inactive) | no effect (inactive) | no effect (inactive) | no effect (inactive) | no effect (inactive) | no effect (inactive) | no effect (inactive) | no effect (inactive) | no effect (inactive) | no effect (inactive) | NC(=O)c1ccc(Nc2cc(-c3ccc(F)cc3)[nH]n2)cc1 | kinase still bound, per cent of control (MAP4K1 (human)): no effect (inactive); kinase still bound, per cent of control (MAP4K3 (human)): no effect (inactive); kinase still bound, per cent of control (MAP4K4 (human)): no effect (inactive); kinase still bound, per cent of control (PDGFRA (human)): 0%; kinase still bound, per cent of control (PDPK1 (human)): no effect (inactive); kinase still bound, per cent of control (SLK (human)): no effect (inactive); kinase still bound, per cent of control (TLK1 (human)): no effect (inactive); kinase still bound, per cent of control [2]: no effect (inactive)

From the kinase profiling compilation of Christmann-Franck et al. (2016)
